Test results: US20220348595A1, “COMPOUNDS AND METHODS FOR THE TARGETED DEGRADATION OF ESTROGEN RECEPTORS” (Endotarget Inc., priority 2021, published 2022)
pIC50: −log10 of the molar value.

Experiments:
Assay type in all cases: cell-based
ERα = biological target: T1, ERα (Homo sapiens, UniProt P03372); assay: ER degradation in MCF-7 cells (Western blot); conditions: for DC50: ER degradation, 24 hours; for Dmax: MCF7, Maximal ER degradation, read-out: Dmax
T1 construct: endogenous in cells; host or cells: MCF-7
T1 sequence (P03372 1-595): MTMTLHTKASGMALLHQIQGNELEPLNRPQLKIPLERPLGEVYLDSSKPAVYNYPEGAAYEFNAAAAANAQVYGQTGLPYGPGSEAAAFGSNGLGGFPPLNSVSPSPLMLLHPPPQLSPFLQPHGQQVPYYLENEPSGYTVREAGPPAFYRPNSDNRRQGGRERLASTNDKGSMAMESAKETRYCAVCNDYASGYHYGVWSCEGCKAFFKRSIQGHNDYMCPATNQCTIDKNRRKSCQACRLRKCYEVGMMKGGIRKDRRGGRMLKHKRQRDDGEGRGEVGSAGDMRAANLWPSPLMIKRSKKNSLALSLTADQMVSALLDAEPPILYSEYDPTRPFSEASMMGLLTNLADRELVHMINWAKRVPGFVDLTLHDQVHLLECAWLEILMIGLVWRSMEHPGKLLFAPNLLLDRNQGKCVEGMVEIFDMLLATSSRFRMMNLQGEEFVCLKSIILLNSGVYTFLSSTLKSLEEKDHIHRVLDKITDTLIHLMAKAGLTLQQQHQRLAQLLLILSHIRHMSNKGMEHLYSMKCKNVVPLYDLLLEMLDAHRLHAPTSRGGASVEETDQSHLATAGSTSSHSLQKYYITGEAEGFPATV
Experimental: Degradation of ER in MCF-7 Breast Cancer Cells by Exemplary Compounds of the Present Disclosure
MCF-7 cells were plated in 24-well plates at a density of 10^5 cells/well. Media containing various drug concentrations were added on the day following plating (day 0) and allowed to incubate for 24 hours for Western blot. Media with the tested compound was changed every other day. Cells were lysed, snapped frozen in liquid nitrogen, and stored at −80° C. until assay for ERα. Media were removed and dishes were washed with 1× DPBS. Lysates were made by adding 150 μL of complete lysis solution and scraping cells into a 1.5 mL microcentrifuge tube. Lysates were placed on a rotisserie at 4° C. for 30 min and then spun at 4° C. at 12000 rcf for 10 min. Supernatants were assayed for protein content, snap-frozen, and stored a −80° C. if not run immediately. Then 50 μg of protein was subjected to Western blot protocol. Membranes were blocked and then incubated with 1:200 dilution of ERα antibody at 4° C. overnight followed by 1:10000 dilution of secondary antibody for 1 h at room temperature. They were then imaged on a LICOR infrared scanner.
FIGS. 1 to 10 show the ER degradation efficacy of compounds 3, 5, 9, 11, 12, 16, 18, 19, 20, 21, 23, 24, 25, 26, 27, 28, 29, 30, 31, 32, 33, 34, 37, 38, and 40 in MCF-7 cells at various concentrations. Degradation of ER was expressed as an DC50 value and was determined for exemplary compounds in Table 1 by calculation of the concentration of compound that was required to give a 50% reduction of ER expression level. Maximal degradation of ER was expressed as a Dmax value by measuring the highest percentage of ER reduction achieved by exemplary compound in the treatment concentration range.

[1] = test system: MCF-7 breast cancer cells; assay: MCF-7 proliferation / cell viability assay; conditions: Homo sapiens, MCF7; MCF-7 proliferation with 0.1 nM 17-beta estradiol; read-out: IC50 (anti-proliferation)
Experimental: The Anti-Proliferative Activities of the Exemplary Compounds were Assessed by a Cell Viability Assay in MCF-7 Breast Cancer Cells
MCF-7 cells were plated in six-well plates at a density of 50,000 each well in 5% FBS DMEM medium. The cells were then treated with exemplary compounds or fulvestrant separately at 6 different doses ranging from 10^−10 M to 10^−5 M for 5 days, while equal volumes of DMSO were used as vehicle controls. Viable cell numbers were counted with a Z Series Coulter Counter instrument (Beckman-Coulter) following manufacturer's instructions. The ratio of drug treated viable cell numbers to vehicle treated viable cell numbers was defined as survival ratio where the control has the survival ratio of 100%.

ER = biological target: T2, ER (Homo sapiens, UniProt P03372); assay: ER antagonism (T47D ERE luciferase), T47d-kb-Luc cells; conditions: read-out: IC50 (ER antagonistm)
T2 construct: endogenous in cells; host or cells: T47d-kb-Luc (T47D stably transfected with a luciferase reporter gene only)
T2 sequence (P03372 1-595): T1 sequence (P03372 1-595)
Experimental: The Antiestrogenic Activity of the Exemplary Compounds was Assessed in T47d-kb-Luc Stably Transfected Human Breast Cancer Cell
Antagonist activities were measured by the compound's ability to inhibit the activity of estradiol, the natural estrogen. Data were then normalized relative to the activity of the estradiol control and determinations were performed for five concentrations of the samples in quadruplicate in at least three separate experiments.

SMILES | DC50 (ERα) | Dmax (ERα) | pIC50 [1] | pIC50 (ER)
CC/C(=C(/c1ccc(OCCN2CCC(CCN3CCN(c4ccc5c(c4)CN(C4CCC(=O)NC4=O)C5=O)CC3)CC2)cc1)c1ccc(B(O)O)cc1)c1ccccc1 (centres unmarked) [Compound 29, (Z)-(4-(1-(4-(2-(4-(2-(4-(2-(2,6-dioxopiperidin-3-yl)-1-oxoisoindolin-5-yl)piperazin-1-yl)ethyl)piperidin-1-yl)ethoxy)phenyl)-2-phenylbut-1-en-1-yl)phenyl)boronic acid] | 10 to 50 nM | > 90% | 7.30 to 8.00 | 7.30 to 8.00
CC/C(=C(\c1ccc(OCCN2CCC(CCN3CCN(c4ccc5c(c4)CN(C4CCC(=O)NC4=O)C5=O)CC3)CC2)cc1)c1ccc(B(O)O)cc1)c1ccccc1 (stereo not drawn) [Compound 30, (E)-(4-(1-(4-(2-(4-(2-(4-(2-(2,6-dioxopiperidin-3-yl)-1-oxoisoindolin-5-yl)piperazin-1-yl)ethyl)piperidin-1-yl)ethoxy)phenyl)-2-phenylbut-1-en-l-yl)phenyl)boronic acid] | < 10 nM | > 90% | 7.30 to 8.00 | 7.30 to 8.00
CC/C(=C(/c1ccc(OCCN2CCC(N3CCN(c4ccc5c(c4)C(=O)N(C4CCC(=O)NC4=O)C5=O)CC3)CC2)cc1)c1ccc(B(O)O)cc1)c1ccccc1 (centres unmarked) [Compound 31, (Z)-(4-(1-(4-(2-(4-(4-(2-(2,6-dioxopiperidin-3-yl)-1,3-dioxoisoindolin-5-yl)piperazin-1-yl)piperidin-1-yl)ethoxy)phenyl)-2-phenylbut-1-en-1-yl)phenyl)boronic acid] | 10 to 50 nM | > 90% | < 7.30 | < 7.30
CC/C(=C(\c1ccc(OCCN2CCC(N3CCN(c4ccc5c(c4)C(=O)N(C4CCC(=O)NC4=O)C5=O)CC3)CC2)cc1)c1ccc(B(O)O)cc1)c1ccccc1 (centres unmarked) [Compound 32, (E)-(4-(1-(4-(2-(4-(4-(2-(2,6-dioxopiperidin-3-yl)-1,3-dioxoisoindolin-5-yl)piperazin-1-yl)piperidin-1-yl)ethoxy)phenyl)-2-phenylbut-1-en-1-yl)phenyl)boronic acid] | 10 to 50 nM | > 90% | < 7.30 | < 7.30
CC/C(=C(/c1ccc(OCCN2CCC(C3CCN(c4ccc5c(c4)C(=O)N(C4CCC(=O)NC4=O)C5=O)CC3)CC2)cc1)c1ccc(B(O)O)cc1)c1ccccc1 (centres unmarked) [Compound 33, (Z)-(4-(1-(4-(2-(1′-(2-(2,6-dioxopiperidin-3-yl)-1,3-dioxoisoindolin-5-yl)-[4,4′-bipiperidin]-1-yl)ethoxy)phenyl)-2-phenylbut-1-en-1-yl)phenyl)boronic acid] | < 10 nM | > 90% | 7.30 to 8.00 | 7.30 to 8.00
CC/C(=C(\c1ccc(OCCN2CCC(C3CCN(c4ccc5c(c4)C(=O)N(C4CCC(=O)NC4=O)C5=O)CC3)CC2)cc1)c1ccc(B(O)O)cc1)c1ccccc1 (centres unmarked) [Compound 34, (E)-(4-(1-(4-(2-(1′-(2-(2,6-dioxopiperidin-3-yl)-1,3-dioxoisoindolin-5-yl)-[4,4′-bipiperidin]-1-yl)ethoxy)phenyl)-2-phenylbut-1-en-1-yl)phenyl)boronic acid] | < 10 nM | > 90% | 7.30 to 8.00 | 7.30 to 8.00
CC/C(=C(/c1ccc(OCCCCCN2CCN(c3ccc4c(c3)CN(C3CCC(=O)NC3=O)C4=O)CC2)cc1)c1ccc(B(O)O)cc1)c1ccccc1 (centres unmarked) [Compound 35, (Z)-(4-(1-(4-((5-(4-(2-(2,6-dioxopiperidin-3-yl)-1-oxoisoindolin-5-yl)piperazin-1-yl)pentyl)oxy)phenyl)-2-phenylbut-1-en-1-yl)phenyl)boronic acid] | 10 to 50 nM | > 90% | 7.30 to 8.00 | 7.30 to 8.00
CC/C(=C(\c1ccc(OCCCCCN2CCN(c3ccc4c(c3)CN(C3CCC(=O)NC3=O)C4=O)CC2)cc1)c1ccc(B(O)O)cc1)c1ccccc1 (centres unmarked) [Compound 36] | 10 to 50 nM | > 90% | 7.30 to 8.00 | 7.30 to 8.00
CC/C(=C(/c1ccc(OCCN2CCN(CCCN3CCN(c4ccc5c(c4)C(=O)N(C4CCC(=O)NC4=O)C5=O)CC3)CC2)cc1)c1ccc(B(O)O)cc1)c1ccccc1 (centres unmarked) [Compound 37, (Z)-(4-(1-(4-(2-(4-(3-(4-(2-(2,6-dioxopiperidin-3-yl)-1,3-dioxoisoindolin-5-yl)piperazin-1-yl)propyl)piperazin-1-yl)ethoxy)phenyl)-2-phenylbut-1-en-1-yl)phenyl)boronic acid] | < 10 nM | > 90% | 7.30 to 8.00 | 7.30 to 8.00
CC/C(=C(\c1ccc(OCCN2CCN(CCCN3CCN(c4ccc5c(c4)C(=O)N(C4CCC(=O)NC4=O)C5=O)CC3)CC2)cc1)c1ccc(B(O)O)cc1)c1ccccc1 (centres unmarked) [Compound 38, (E)-(4-(1-(4-(2-(4-(3-(4-(2-(2,6-dioxopiperidin-3-yl)-1,3-dioxoisoindolin-5-yl)piperazin-1-yl)propyl)piperazin-1-yl)ethoxy)phenyl)-2-phenylbut-1-en-1-yl)phenyl)boronic acid] | < 10 nM | > 90% | 7.30 to 8.00 | 7.30 to 8.00
CC/C(=C(\c1ccc(B(O)O)cc1)c1ccc(N2CCC(CNC3CCN(c4ccc5c(c4)C(=O)N(C4CCC(=O)NC4=O)C5=O)CC3)CC2)cc1)c1ccccc1 (centres unmarked) [Compound 39, (Z)-(4-(1-(4-(4-(((1-(2-(2,6-dioxopiperidin-3-yl)-1,3-dioxoisoindolin-5-yl)piperidin-4-yl)amino)methyl)piperidin-1-yl)phenyl)-2-phenylbut-1-en-1-yl)phenyl)boronic acid] | < 10 nM | > 90% | 7.30 to 8.00 | 7.30 to 8.00
CC/C(=C(/c1ccc(B(O)O)cc1)c1ccc(N2CCC(CNC3CCN(c4ccc5c(c4)C(=O)N(C4CCC(=O)NC4=O)C5=O)CC3)CC2)cc1)c1ccccc1 (centres unmarked) [Compound 40, (E)-(4-(1-(4-(4-(((1-(2-(2,6-dioxopiperidin-3-yl)-1,3-dioxoisoindolin-5-yl)piperidin-4-yl)amino)methyl)piperidin-1-yl)phenyl)-2-phenylbut-1-en-1-yl)phenyl)boronic acid] | < 10 nM | > 90% | 7.30 to 8.00 | 7.30 to 8.00
CC/C(=C(/c1ccc(OCCN2CCN(c3ccc4c(c3)C(=O)N(C3CCC(=O)NC3=O)C4=O)CC2)cc1)c1ccc(B(O)O)cc1)c1ccccc1 (centres unmarked) [Compound 41, (Z)-(4-(1-(4-(2-(4-(2-(2,6-dioxopiperidin-3-yl)-1,3-dioxoisoindolin-5-yl)piperazin-1-yl)ethoxy)phenyl)-2-phenylbut-1-en-1-yl)phenyl)boronic acid] | 10 to 50 nM | > 50% | 7.30 to 8.00 | 7.30 to 8.00
CC/C(=C(\c1ccc(OCCN2CCN(c3ccc4c(c3)C(=O)N(C3CCC(=O)NC3=O)C4=O)CC2)cc1)c1ccc(B(O)O)cc1)c1ccccc1 (centres unmarked) [Compound 42, (E)-(4-(1-(4-(2-(4-(2-(2,6-dioxopiperidin-3-yl)-1,3-dioxoisoindolin-5-yl)piperazin-1 yl)ethoxy)phenyl)-2-phenylbut-1-en-1-yl)phenyl)boronic acid] | 10 to 50 nM | > 50% | 7.30 to 8.00 | 7.30 to 8.00
